Source: patent publication US20230201025A1, “PROCESS FOR FABRICATING A DENTAL APPLIANCE AND ACCOMPANYING USE CASES” (Bottmedical AG, priority 2020, published 2023)

Assays:
Streptococcus mutans = experiment: calorimetric measurement of suppression of bacterial growth (S. mutans); type: cell-based; settings: single essential oil component at 0.1% in BHI
Procedure: (§1) Finally, additional calorimetric experiments were performed to measure the capability of different agents of suppressing the growth of bacteria such as Streptococcus mutans and Streptococcus mitis. The different agents 7 were applied as a solution containing a single essential oil component at a concentration of 0.1% in BHI. As figure of merits, the lag phase, defined as the postponement in time of the growth of the bacteria and measured in hours, and the growth rate (increase in number of bacteria/time), measured in J/h, of the Streptococcus populations were determined as follows: […]

Streptococcus mitis = experiment: calorimetric measurement of suppression of bacterial growth (S. mitis); type: cell-based; settings: single essential oil component at 0.1% in BHI
Procedure: as §1

Row | Structure (SMILES) | growth rate (J/h) of S. mutans (Streptococcus mutans) [J/h] | lag phase (h) of S. mutans growth (Streptococcus mutans) [h] | growth rate (J/h) of S. mitis (Streptococcus mitis) [J/h] | lag phase (h) of S. mitis growth (Streptococcus mitis) [h] | growth rate (J/h) of S. mutans (Streptococcus mutans; listed as cinnamaldehyde)
1 | COC(=O)c1ccccc1O [methyl salicylate] | 1.2 | 5 | 0.4 | 23 | 
2 | C=C(C)[C@H]1CC=C(C)CC1 [Limonene] |  |  | 0.11 | 3 | 
3 | C/C=C/c1ccc(OC)cc1 [trans-anethole] | 0.03 | >24 | 0.13 | 6.4 | 
4 | O=CC=Cc1ccccc1 [cinnam aldehyde, cinnamaldehyde] | 0 | >24 | 0.15 | 6.2 | without any measurable growth
5 | CC12CCC(CC1)C(C)(C)O2 [Eucalyptol] | 1.3 | 5 | 0.14 | 2 | 
